Key:
[1] = tested on: uveal melanoma cells (Mel202); set-up: method as in PMID 24676409; conditions: Mel202, low expression of CXCR1/2; cited from earlier work
[2] = tested on: HR1 cells; experiment: Clonogenic assay; type: cell-based, human
Description: (§1) Figure 8 C29 is efficient on radioresistant MB cell lines. (A) Cell death after 48 h of treatment with control (DMSO, CT) or C29 1, 2.5, or 5 µM on radiation-resistant cells (RR) and normal cells (N), n = 3. Statistics were performed using the one-way method ANOVA. * p < 0.05, ** p < 0.01, *** p < 0.001. For this figure, DR1 = D1, DR2 = D2, HR1 = H1, HR2 = H2, and C8D1A = C8. (B) Proliferation of DR1/DR2 (A) and HR1/HR2 (B) radio-resistant cells after 1 µM C29 treatment or control (DMSO), n = 3. (C) Clonogenic assay on DR1, DR2 (n = 3) and HR1, HR2 (n = 3) cells after treatment with control (DMSO) or C29 (1 µM or 2.5 µM). (D) Cell migration through the Boyden chamber of DR1 and DR2 cells specifically attracted by 200 ng/mL CXCL8. Cells were treated with control (DMSO) or C29 (1 and 2.5 µM). Results are expressed as percentage of control (n = 3). Scale = 1000 μm. Statistics were performed using Student t-test for 2 comparisons only or ANOVA test for multiple comparisons. * p < 0.05, ** p < 0.01, *** p < 0.001. […]
each month by using PlasmoTest Kit (#10L07‐MM, InvivoGen, Toulouse, France). […]
(§2) 150 Daoy/DR1/DR2/ ONS ‐ 76 and 300 HD ‐ MB03/HR1/HR2 cells were seeded in trip‐ licate in 6‐well plates in the presence or absence of treatment (1 or 2∙5μM MCK140 or DMSO as control). […] The number of clones was quantified using ImageJ software. […]

[3] = tested on: Daoy, ONS-76, HD-MB03, and D341Med wild-type cells; experiment: Cell proliferation assay (cell counting); type: cell-based, human; conditions: 1 µM C29, pre-incubation prior to cell seeding, all tested cell lines
Description: To confirm the efficacy of C29 on various parameters of cancer cell aggressiveness, we first performed cell proliferation assays at longer time points.
Figure 4 C29 reduces proliferation, migration, and invasion of naïve MB cells. (A) Proliferation of Daoy, ONS-76, HD-MB03, and D341Med wild-type cells after treatment with 1 μM C29 or the control (DMSO), n = 3. (B) Clonogenic assay on Daoy (n = 4), ONS-76 (n = 3) and HD -MB03 (n = 5) cells after treatment with control (DMSO) or C29 (1 μM or 2.5 μM). Scale = 500 μm. (C) Cell migration through the Boyden chamber of Daoy and ONS-76 cells specifically attracted by 200 ng/mL CXCL8. Results are expressed as percentage of control (DMSO) (n = 3). […] Results are expressed as percentage of day 0, n = 4. […]
(§3) 1500 Daoy, ONS ‐76, HD ‐MB03 or D341 Med cells were sown in triplicate in plates with six wells and the cells were counted daily for 8 days using a Coulter counter (Ville‐ pinte). The relative number of cells (compared to day 1) was determined daily. […]
Y = Y0 * exp(k * X) (Y= Cell number at day X; Y0= Cell number at day 0 (graphically calculated); X= Day following cell plating (cells plated at X0=0); k= Exponential growth constant rate. Doubling times were compared. […]
were seeded in 6‐well plates. […] Cell death was detected by PE chan‐ nel using FACS Cytoflex (Beckman) immediately after labelling the cells with 1ug/ml pro‐ pidium iodide (Miltenyi Biotec). […]

[4] = tested on: DR1/DR2 and HR1/HR2 radio-resistant cells; experiment: Cell proliferation assay (cell counting), radiation-resistant cells; type: cell-based, human; conditions: 1 µM
Description: as §1, with “(D) Cell migration through the Boyden chamber of DR1 and DR2 cells specifically attracted by 200 ng/mL CXCL8. Cells were treated with control (DMSO) or C29 (1 and 2.5 µM).” left out, “3).” for “3). Scale = 1000 μm. Statistics were performed using Student t-test for 2 comparisons only or ANOVA test for multiple comparisons. * p < 0.05, ** p < 0.01, *** p < 0.001.”
as §3
Y = Y0 * exp(k * X) (Y= Cell number at day X; Y0= Cell number at day 0 (graphically calculated); X= Day following cell plating (cells plated at X0=0); k= Exponential growth constant rate. Doubling times were compared.
as §2

In the case of `O=C(Nc1cccc(Cl)c1)Nc1nc2ccc([N+](=O)[O-])cc2s1` [C29, 1-(3-chlorophenyl)-3-(6-nitrobenzo[d]thiazol-2-yl) urea], the “Effect on proliferation and survival” value [1] is given as “no effect”, the Clone formation ([2]; HR1, 1 µM) is given as “reduced the number of clones” and the Clone formation ([2]; HR1, 2.5 µM) is given as “extinguished them”. The Proliferation [3] was “completely inhibited proliferation” and the Proliferation [4] was “reduce proliferation”.

— article PMC9738107, “Targeting of the ELR+CXCL/CXCR1/2 Pathway Is a Relevant Strategy for the Treatment of Paediatric Medulloblastomas” (Cells, 2022)
